From patent US20230151003A1, “COMPOUNDS AND METHODS OF USE” (Exelixis, Inc., priority 2020, published 2023)

Experiments:
Assay type in all cases: cell-based
Met = Met (Homo sapiens, UniProt P08581); experiment: Met autophosphorylation ELISA in PC-3 cells; set-up: endogenous in cells; host or cells: PC-3 prostate cancer cells (ATCC #CRL-1435); conditions: Table 3 Cellular Activities, HGF-stimulated, phospho-Met ELISA, read-out: c-Met IC50
Method: PC-3 prostate cancer cells (ATCC #CRL-1435) were seeded at 4×10^4 cells/well onto 24-well plates (Greiner #662165), in DMEM (Thermo Fisher #11995-040) containing 10% FBS (Thermo Fisher #26140-079), 1% MEM NEAA (Thermo Fisher #11140-050), 1% GlutaMax (Thermo Fisher #35050-061), and 1% Penicillin Streptomycin (Thermo Fisher #15140-122). PC-3 cells were incubated at 37° C., 5% CO2 for 24 h and then starved for 3 h in serum-free medium. Test compounds were serially diluted to produce an 8-point dose curve in fresh serum-free medium to a final concentration of 0.3% DMSO (vehicle) and added to the cells and incubated for 1 h. Cells were then stimulated with 100 ng/mL recombinant human HGF (R&D Systems #294-HG-250) for 10 min, washed with cold PBS, and immediately lysed with 130 μL of cold 1× lysis buffer [20 mM Tris, 137 mM sodium chloride, 2 mM EDTA, 10% glycerol, 1% NP-40 alternative, 1 mM activated sodium orthovanadate, 1 mM PefaBloc SC (Sigma-Aldrich #11429868001), protease/phosphatase inhibitor tablet (Thermo Fisher #A32959)]. Lysates were clarified by centrifugation and 100 μL/well added into the PathScan phospho-Met (panTyr) Sandwich ELISA (Cell Signaling Technology #7333). Assay was performed according to manufacturer's instructions. Positive control wells (100% activity) contained HGF-stimulated, DMSO-treated cell lysates. Negative control wells (0% activity) contained HGF-stimulated, reference inhibitor-treated cell lysates. IC50 values were calculated by nonlinear regression analysis using a 4-parameter logistic curve fit in ActivityBase XE (IDBS).

Mer = biological target: T1, Mer (Homo sapiens, UniProt Q12866); experiment: Mer autophosphorylation ELISA in transient transfected 293A cells; conditions: Table 3 Cellular Activities; MERTK-transfected 293A cells, phospho-Mer ELISA
T1 construct: host or cells: 293A cells (Thermo Fisher #R70507)
T1 sequence (Q12866 21-999): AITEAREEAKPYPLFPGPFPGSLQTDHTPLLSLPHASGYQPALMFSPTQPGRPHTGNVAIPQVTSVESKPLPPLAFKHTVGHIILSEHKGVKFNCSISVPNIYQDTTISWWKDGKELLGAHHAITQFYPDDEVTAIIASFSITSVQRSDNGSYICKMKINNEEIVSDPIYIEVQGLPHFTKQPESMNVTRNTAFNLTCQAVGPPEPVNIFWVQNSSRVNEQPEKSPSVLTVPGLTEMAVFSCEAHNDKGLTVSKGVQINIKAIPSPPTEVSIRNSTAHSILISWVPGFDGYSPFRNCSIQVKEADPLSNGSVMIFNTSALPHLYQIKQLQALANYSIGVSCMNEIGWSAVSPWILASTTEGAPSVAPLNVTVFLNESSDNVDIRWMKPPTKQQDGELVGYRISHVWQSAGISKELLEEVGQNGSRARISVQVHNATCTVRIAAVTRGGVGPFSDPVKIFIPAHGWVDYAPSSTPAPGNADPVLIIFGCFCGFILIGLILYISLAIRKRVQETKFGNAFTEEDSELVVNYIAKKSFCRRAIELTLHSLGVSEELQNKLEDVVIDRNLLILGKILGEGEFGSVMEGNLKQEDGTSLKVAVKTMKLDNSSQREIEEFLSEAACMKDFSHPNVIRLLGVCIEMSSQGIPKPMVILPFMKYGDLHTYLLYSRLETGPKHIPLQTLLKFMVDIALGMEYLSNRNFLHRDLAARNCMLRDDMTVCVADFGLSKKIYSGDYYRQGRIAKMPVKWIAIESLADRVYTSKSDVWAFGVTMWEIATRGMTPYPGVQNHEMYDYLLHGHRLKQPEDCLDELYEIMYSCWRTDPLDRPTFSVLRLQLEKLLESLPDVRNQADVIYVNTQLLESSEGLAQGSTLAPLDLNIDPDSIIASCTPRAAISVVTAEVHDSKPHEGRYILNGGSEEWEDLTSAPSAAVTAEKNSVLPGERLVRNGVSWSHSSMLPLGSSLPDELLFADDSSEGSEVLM
Method: 293A cells (Thermo Fisher #R70507) were seeded at 1.5×10^6 cells/well onto 100 mm dish (Greiner #664169), in DMEM (Thermo Fisher #11995-040) containing 10% FBS (Thermo Fisher #26140-079), 1% MEM NEAA (Thermo Fisher #11140-050), 1% GlutaMax (Thermo Fisher #35050-061), and 1% Penicillin Streptomycin (Thermo Fisher #15140-122). 293A cells were incubated at 37° C., 5% CO2 for 24 h and then transfected with 6μg MERTK DNA (Genecopoeia #EX-Z8208-M02) using TransIT LT1 transfection reagent (Mirus-Bio #MIR2305). After 24 h incubation, the transfected 293A cells were seeded at 1×10^5 cells/well onto 96-well plates (Corning #3904) in DMEM growth medium overnight. Test compounds were serially diluted to produce an 8-point dose curve in fresh serum-free medium to a final concentration of 0.3% DMSO (vehicle) and added to the cells and incubated for 1 h. Cells were then immediately lysed with 150 μL of cold 1× lysis buffer […], 137 mM sodium chloride, 2 mM EDTA, 10% glycerol, 1% NP-40 alternative, 1 mM activated sodium orthovanadate, 1 mM PefaBloc SC (Sigma-Aldrich #11429868001), protease/phosphatase inhibitor tablet (Thermo Fisher #A32959)]. Lysates were clarified by centrifugation and 50 μL/well added into the human phospho-Mer DuoSet IC ELISA (R&D Systems #DYC2579-2). Assay was performed according to manufacturer's instructions and sample phospho-Mer concentrations were extrapolated using human phospho-Mer control (R&D Systems #841793) as a standard. Positive control wells (100% activity) contained DMSO-treated cell lysates. Negative control wells (0% activity) contained reference inhibitor-treated cell lysates. IC50 values were calculated by nonlinear regression analysis using a 4-parameter logistic curve fit in ActivityBase XE (IDBS).

KDR = KDR (Homo sapiens, UniProt P35968); experiment: KDR autophosphorylation ELISA in HUVEC cells; set-up: endogenous in cells; host or cells: HUVEC (Lonza #C2519A); conditions: Table 3 Cellular Activities, VEGF165-stimulated, phospho-KDR ELISA
Sequence of KDR (P35968 20-1356): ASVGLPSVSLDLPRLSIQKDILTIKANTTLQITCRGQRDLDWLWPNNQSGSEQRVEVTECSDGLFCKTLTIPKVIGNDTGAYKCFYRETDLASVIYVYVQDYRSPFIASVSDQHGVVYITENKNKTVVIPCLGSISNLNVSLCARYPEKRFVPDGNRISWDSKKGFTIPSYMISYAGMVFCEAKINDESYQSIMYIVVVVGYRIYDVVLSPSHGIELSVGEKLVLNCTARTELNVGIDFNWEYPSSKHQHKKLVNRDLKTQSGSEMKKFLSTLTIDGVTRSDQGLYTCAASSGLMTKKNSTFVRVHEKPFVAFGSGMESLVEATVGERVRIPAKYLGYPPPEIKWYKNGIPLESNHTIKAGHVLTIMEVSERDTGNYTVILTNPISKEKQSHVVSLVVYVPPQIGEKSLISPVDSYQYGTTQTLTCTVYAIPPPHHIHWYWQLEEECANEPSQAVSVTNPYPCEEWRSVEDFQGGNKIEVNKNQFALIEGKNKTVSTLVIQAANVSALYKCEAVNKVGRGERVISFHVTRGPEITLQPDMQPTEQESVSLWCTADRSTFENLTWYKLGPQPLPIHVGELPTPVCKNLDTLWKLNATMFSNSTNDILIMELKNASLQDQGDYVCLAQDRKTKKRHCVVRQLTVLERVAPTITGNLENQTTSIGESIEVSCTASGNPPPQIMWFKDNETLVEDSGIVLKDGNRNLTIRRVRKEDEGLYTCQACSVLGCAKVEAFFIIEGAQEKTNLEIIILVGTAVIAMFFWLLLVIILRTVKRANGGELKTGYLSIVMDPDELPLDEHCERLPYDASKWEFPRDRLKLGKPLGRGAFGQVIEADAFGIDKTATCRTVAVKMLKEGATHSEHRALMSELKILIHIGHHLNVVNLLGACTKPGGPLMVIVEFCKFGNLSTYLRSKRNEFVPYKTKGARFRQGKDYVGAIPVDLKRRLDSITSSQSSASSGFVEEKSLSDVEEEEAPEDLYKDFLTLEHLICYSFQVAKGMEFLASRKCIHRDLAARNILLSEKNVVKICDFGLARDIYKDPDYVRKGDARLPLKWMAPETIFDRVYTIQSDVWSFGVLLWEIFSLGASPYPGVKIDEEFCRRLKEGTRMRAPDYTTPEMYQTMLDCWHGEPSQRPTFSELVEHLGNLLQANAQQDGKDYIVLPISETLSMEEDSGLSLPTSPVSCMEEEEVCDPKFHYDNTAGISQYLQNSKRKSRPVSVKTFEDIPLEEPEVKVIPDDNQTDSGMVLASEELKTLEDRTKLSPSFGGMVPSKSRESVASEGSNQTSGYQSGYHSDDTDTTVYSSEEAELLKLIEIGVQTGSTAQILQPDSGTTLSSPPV
Method: Human umbilical vein endothelial cells or HUVEC (Lonza #C2519A) were seeded at 2×10^4 cells/well onto 96-well plates (Corning #3904), in EGM-2 growth medium (Lonza #CC-3162) containing 1% Penicillin Streptomycin (Thermo Fisher #15140-122). HUVEC cells were incubated at 37° C., 5% CO2 for 24 h and then starved for 24 h in serum-free EBM-2 basal medium (Lonza #CC-3156) containing 1% Penicillin Streptomycin. Test compounds were serially diluted to produce an 8-point dose curve in fresh serum-free medium to a final concentration of 0.3% DMSO (vehicle) and added to the cells and incubated for 1 h. Cells were then stimulated with 100 ng/mL recombinant human VEGF165 (R&D Systems #293-VE-500) for 5 min, washed with cold PBS, and immediately lysed with 130 μL of cold 1× lysis buffer [20 mM Tris, 137 mM sodium chloride, 2 mM EDTA, 10% glycerol, 1% NP-40 alternative, 1 mM activated sodium orthovanadate, 1 mM PefaBloc SC (Sigma-Aldrich #11429868001), protease/phosphatase inhibitor tablet (Thermo Fisher #A32959)]. Lysates were collected and 100 μL/well added into the human phospho-KDR DuoSet IC ELISA (R&D Systems #DYC1766-2). Assay was performed according to manufacturer's instructions and sample phospho-KDR concentrations were extrapolated using human phospho-KDR control (R&D Systems #841421) as a standard. Positive control wells (100% activity) contained VEGF165-stimulated, DMSO-treated cell lysates. Negative control wells (0% activity) contained non-stimulated cell lysates. IC50 values were calculated by nonlinear regression analysis using a 4-parameter logistic curve fit in ActivityBase XE (IDBS).

Sequence of Met (P08581 25-1390): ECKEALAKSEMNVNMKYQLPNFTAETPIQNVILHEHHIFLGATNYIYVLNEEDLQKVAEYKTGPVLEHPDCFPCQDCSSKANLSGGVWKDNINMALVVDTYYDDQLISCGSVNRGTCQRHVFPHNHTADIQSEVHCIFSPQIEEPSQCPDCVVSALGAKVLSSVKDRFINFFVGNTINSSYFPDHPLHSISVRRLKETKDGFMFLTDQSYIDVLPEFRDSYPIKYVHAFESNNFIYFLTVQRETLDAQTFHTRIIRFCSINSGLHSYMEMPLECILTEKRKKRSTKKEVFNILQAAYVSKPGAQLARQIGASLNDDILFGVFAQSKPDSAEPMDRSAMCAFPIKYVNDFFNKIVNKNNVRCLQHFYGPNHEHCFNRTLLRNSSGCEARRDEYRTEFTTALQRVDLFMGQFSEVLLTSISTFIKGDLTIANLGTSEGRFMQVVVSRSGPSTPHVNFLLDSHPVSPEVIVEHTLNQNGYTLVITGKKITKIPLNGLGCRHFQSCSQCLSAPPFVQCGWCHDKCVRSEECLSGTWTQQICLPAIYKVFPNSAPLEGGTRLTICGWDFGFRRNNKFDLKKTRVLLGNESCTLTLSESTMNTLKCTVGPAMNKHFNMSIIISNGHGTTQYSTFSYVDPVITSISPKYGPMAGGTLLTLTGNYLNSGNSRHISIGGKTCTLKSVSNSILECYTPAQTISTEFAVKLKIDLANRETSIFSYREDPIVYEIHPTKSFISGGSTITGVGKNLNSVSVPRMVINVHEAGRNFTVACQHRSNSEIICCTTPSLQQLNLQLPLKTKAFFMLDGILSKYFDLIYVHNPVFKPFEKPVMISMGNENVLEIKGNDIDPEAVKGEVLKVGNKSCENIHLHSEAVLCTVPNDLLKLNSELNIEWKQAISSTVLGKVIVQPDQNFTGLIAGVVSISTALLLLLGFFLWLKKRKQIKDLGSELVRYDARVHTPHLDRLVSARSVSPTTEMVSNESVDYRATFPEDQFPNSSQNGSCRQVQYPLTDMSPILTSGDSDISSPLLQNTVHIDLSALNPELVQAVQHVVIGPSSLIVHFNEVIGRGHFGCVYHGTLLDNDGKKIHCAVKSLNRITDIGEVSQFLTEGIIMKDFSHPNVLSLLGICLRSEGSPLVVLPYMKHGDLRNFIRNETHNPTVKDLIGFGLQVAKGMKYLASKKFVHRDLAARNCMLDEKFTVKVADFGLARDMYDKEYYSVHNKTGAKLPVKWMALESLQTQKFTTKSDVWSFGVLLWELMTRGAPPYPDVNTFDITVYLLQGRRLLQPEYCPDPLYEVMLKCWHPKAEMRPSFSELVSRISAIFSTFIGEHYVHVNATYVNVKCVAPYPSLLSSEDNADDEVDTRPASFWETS

SMILES	IC50 (Met)	IC50 (Mer)	IC50 (KDR)
COc1cc2nccc(Oc3ccc(NC(=O)c4cc(C(C)=O)c(C)n(-c5ccoc5)c4=O)cc3)c2nc1OC [Compound 239, 5-Acetyl-N-[4-[(6,7-dimethoxy-1,5-naphthyridin-4-yl)oxy]phenyl]-1-(furan-3-yl)-6-methyl-2-oxopyridine-3-carboxamide]	300 to 1000 nM	300 to 1000 nM	300 to 1000 nM
CCOCCOCCOc1cc(-n2c(C)ccc(C(=O)Nc3ccc(Oc4ccnc5cc(OC)c(OC)nc45)c(F)c3)c2=O)ccn1 [Compound 224, N-[4-[(6,7-Dimethoxy-1,5-naphthyridin-4-yl)oxy]-3-fluorophenyl]-1-[2-[2-(2-ethoxyethoxy)ethoxy]pyridin-4-yl]-6-methyl-2-oxopyridine-3-carboxamide]	≤ 100 nM	≤ 100 nM	≤ 100 nM
COc1cc2nccc(Oc3ccc(NC(=O)c4c(C)ncc(-c5ccc(C)s5)c4O)cc3F)c2nc1OC [Compound 124, N-[4-[(6,7-Dimethoxy-1,5-naphthyridin-4-yl)oxy]-3-fluorophenyl]-4-hydroxy-2-methyl-5-(5-methylthiophen-2-yl)pyridine-3-carboxamide]	≤ 100 nM	≤ 100 nM	≤ 100 nM
CCc1c(C(=O)Nc2ccc(Oc3ccnc4cc(OCCOC)c(OC)nc34)c(F)c2)c(=O)c(-c2ccco2)c(C)n1C [Compound 326, 2-Ethyl-N-[3-fluoro-4-[[6-methoxy-7-(2-methoxyethoxy)-1,5-naphthyridin-4-yl]oxy]phenyl]-5-(furan-2-yl)-1,6-dimethyl-4-oxopyridine-3-carboxamide]	≤ 100 nM	≤ 100 nM	≤ 100 nM
COc1cnc2c(Oc3ccc(NC(=O)c4c(C)n(C)c(C)c(-c5ccco5)c4=O)cc3)ccnc2c1 [Compound 161, 5-(Furan-2-yl)-N-[4-[(7-methoxy-1,5-naphthyridin-4-yl)oxy]phenyl]-1,2,6-trimethyl-4-oxopyridine-3-carboxamide]	≤ 100 nM	≤ 100 nM	300 to 1000 nM
